Laboratory results from PubChem BioAssay (NCI).
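Results reflect a 48-hour exposure of cells in 96-well plates to compound at five concentrations. GI50 marks 50% less growth. TGI: total growth inhibition.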

How the values were obtained:
Experiment in all cases: inhibition of tumour cell growth, NCI panel, 48 h
SF-295 CNS = test system: SF-295 CNS
HL-60(TB) leukemia = test system: HL-60(TB) leukemia
786-0 renal = test system: 786-0 renal
M14 melanoma = test system: M14 melanoma
SNB-75 CNS = test system: SNB-75 CNS
KM12 colon = test system: KM12 colon
HCC-2998 colon = test system: HCC-2998 colon
OVCAR-5 ovarian = test system: OVCAR-5 ovarian

| Structure (SMILES) | TGI (SF-295 CNS) [µM] | TGI (HL-60(TB) leukemia) [µM] | TGI (786-0 renal) [µM] | TGI (M14 melanoma) [µM] | TGI (SNB-75 CNS) [µM] | TGI (KM12 colon) [µM] | TGI (HCC-2998 colon) [µM] | GI50 (OVCAR-5 ovarian) [µM] | TGI (OVCAR-5 ovarian) [µM] | GI50 (SF-295 CNS) [µM] | GI50 (HL-60(TB) leukemia) [µM] | GI50 (786-0 renal) [µM] | GI50 (M14 melanoma) [µM] | GI50 (SNB-75 CNS) [µM] | GI50 (KM12 colon) [µM] | GI50 (HCC-2998 colon) [µM] |
| --- | --- | --- | --- | --- | --- | --- | --- | --- | --- | --- | --- | --- | --- | --- | --- | --- |
| O=C(CC(O)(C(F)(F)F)C(F)(F)F)c1cccs1 | > 10 | > 10 | > 10 | > 10 | > 10 | > 10 | > 10 | – | – | – | – | – | – | – | – | – |
| N#Cc1ncc(-c2ccc(C(F)(F)F)cc2)c(NC2CCCCCC2)n1 | > 100 | > 100 | > 100 | > 100 | > 100 | > 100 | > 100 | > 100 | > 100 | 27.5 | 10.4 | 47.7 | 38.5 | > 100 | 13.6 | 13.2 |
| CN1C(=O)[C@@H](CC2CCCC2)N(C2CCCC2)c2nc(Nc3cc(Cl)c(O)c(Cl)c3)ncc21 | 81.9 | 58.1 | 47.2 | > 100 | – | > 100 | > 100 | 27.7 | > 100 | 23.3 | 10.3 | 15.2 | 22.2 | – | 37.5 | 29.8 |
| COc1ccc(-c2cc(-c3ccc(Cl)cc3)nc(SCCCC(=O)NO)n2)cc1OC | 2.75 | 8.56 | 2.68 | – | 6.31 | 3.22 | 3.05 | 0.931 | 4.36 | 0.926 | 2.48 | 0.591 | – | 1.49 | 1.34 | 1.5 |
